The source of these data is PMC9851200, “Multiparameter phenotypic screening for endogenous TFEB and TFE3 translocation identifies novel chemical series modulating lysosome function” (Autophagy, 2022).

Common to all, as to type: binding
Test [1] addresses kinases (KINOMEscan panel) (Homo sapiens, UniProt P09769). Conditions: FGR; NEW KINOMEscan.
Test [2] concerns the target kinases (KINOMEscan panel) (Homo sapiens, UniProt P19525). Conditions: kinase ElF2AK2; NEW KINOMEscan.
The target in test [3] is kinases (KINOMEscan panel) (Homo sapiens, UniProt P22455). Conditions: NEW KINOMEscan.
Test [4] has as its target kinases (KINOMEscan panel) (Homo sapiens, UniProt P42336, Q546K). Conditions: kinase PIK3CA(Q546K); NEW KINOMEscan.
Test [5] has as its target T1, kinases (KINOMEscan panel) (Homo sapiens, UniProt P54753).
T1 sequence (P54753 34-998): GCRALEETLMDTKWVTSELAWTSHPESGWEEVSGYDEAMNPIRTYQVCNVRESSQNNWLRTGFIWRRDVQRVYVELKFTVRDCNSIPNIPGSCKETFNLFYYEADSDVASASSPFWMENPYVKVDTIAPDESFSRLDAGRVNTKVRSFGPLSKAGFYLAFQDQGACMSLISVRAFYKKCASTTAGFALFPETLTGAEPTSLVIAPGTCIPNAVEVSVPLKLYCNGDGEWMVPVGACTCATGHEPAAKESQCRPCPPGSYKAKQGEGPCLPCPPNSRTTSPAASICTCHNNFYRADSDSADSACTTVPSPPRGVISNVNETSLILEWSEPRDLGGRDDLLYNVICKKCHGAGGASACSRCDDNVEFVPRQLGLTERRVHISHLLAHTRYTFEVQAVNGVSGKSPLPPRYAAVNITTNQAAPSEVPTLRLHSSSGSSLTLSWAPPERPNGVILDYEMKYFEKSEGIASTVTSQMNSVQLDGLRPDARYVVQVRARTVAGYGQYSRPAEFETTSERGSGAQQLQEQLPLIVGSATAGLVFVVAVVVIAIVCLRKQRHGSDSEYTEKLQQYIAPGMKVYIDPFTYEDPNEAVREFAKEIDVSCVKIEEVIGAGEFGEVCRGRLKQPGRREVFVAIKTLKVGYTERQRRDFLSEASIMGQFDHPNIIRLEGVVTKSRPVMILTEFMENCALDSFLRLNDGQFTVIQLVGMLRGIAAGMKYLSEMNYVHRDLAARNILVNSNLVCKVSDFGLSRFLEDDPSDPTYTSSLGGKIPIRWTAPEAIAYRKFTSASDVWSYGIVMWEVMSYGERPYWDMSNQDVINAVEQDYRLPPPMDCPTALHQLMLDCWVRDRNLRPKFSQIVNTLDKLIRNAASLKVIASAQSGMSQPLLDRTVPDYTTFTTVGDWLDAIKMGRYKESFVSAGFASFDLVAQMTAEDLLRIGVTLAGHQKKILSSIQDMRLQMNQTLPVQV
The following applies: kinase EPHB3; NEW KINOMEscan.

For test [6], the target named is T2, kinases (KINOMEscan panel) (Homo sapiens, UniProt Q02156).
T2 sequence (Q02156 1-737): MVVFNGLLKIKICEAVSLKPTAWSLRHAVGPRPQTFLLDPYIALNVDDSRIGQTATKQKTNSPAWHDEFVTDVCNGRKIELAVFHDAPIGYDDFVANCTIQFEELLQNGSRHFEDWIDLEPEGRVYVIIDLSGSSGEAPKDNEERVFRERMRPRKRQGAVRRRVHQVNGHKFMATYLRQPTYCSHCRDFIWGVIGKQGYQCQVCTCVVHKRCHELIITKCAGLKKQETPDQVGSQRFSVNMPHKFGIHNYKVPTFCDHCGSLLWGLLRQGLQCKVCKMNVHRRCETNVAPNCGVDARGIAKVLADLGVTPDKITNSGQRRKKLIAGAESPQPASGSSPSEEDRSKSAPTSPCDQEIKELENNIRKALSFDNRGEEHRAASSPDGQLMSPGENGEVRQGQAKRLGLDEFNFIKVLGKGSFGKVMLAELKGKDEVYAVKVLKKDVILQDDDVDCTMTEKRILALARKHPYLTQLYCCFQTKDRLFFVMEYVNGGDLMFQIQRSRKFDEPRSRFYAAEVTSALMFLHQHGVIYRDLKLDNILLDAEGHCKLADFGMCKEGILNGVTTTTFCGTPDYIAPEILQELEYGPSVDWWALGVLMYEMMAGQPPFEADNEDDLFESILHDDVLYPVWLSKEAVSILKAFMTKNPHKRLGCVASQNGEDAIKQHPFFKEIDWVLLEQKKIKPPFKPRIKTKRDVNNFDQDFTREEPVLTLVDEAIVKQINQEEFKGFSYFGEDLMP
The following applies: kinase PRKCE; NEW KINOMEscan.

Test [7] deals with kinases (KINOMEscan panel) (Homo sapiens, UniProt Q07912). Conditions: TNK2; NEW KINOMEscan.
Chain of kinases (KINOMEscan panel) (Homo sapiens, UniProt Q07912) (Q07912 whole entry): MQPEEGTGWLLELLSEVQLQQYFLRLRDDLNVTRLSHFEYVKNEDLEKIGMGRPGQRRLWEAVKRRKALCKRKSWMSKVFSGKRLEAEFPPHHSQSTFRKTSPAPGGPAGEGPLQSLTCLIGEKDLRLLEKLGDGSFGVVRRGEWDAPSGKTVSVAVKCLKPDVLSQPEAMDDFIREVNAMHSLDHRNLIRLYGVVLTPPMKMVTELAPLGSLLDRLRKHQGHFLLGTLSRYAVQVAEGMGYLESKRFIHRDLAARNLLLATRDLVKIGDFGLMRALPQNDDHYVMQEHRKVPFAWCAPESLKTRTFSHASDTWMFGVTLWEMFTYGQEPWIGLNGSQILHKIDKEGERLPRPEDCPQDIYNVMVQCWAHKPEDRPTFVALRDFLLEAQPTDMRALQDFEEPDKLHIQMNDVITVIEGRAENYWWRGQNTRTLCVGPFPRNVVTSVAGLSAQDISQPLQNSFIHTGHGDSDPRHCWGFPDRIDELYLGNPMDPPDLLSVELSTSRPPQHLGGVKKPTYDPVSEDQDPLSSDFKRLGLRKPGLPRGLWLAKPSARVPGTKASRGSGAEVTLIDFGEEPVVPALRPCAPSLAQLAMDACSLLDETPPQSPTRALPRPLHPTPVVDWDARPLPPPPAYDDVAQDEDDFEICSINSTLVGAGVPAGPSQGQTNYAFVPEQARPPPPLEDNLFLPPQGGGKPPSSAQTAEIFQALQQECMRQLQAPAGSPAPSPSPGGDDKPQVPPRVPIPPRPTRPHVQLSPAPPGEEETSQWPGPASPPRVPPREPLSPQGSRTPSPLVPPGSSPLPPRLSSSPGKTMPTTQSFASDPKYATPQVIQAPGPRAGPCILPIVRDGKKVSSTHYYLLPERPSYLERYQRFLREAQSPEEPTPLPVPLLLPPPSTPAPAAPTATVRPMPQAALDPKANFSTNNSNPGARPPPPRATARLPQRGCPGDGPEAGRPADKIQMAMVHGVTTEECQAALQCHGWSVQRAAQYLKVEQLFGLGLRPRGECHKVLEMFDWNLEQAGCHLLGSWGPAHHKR
Test [8] concerns the target kinases (KINOMEscan panel) (Homo sapiens, UniProt Q14012). Conditions: CAMK1; NEW KINOMEscan.
Test [9] deals with kinases (KINOMEscan panel) (Homo sapiens, UniProt Q8TDX7). The following applies: NEK7; NEW KINOMEscan.
Test [10] has as its target kinases (KINOMEscan panel) (Homo sapiens, UniProt Q96J92). Conditions: WNK4; NEW KINOMEscan.
In test [11] the target is kinases (KINOMEscan panel) (Homo sapiens, UniProt Q9BYT3). The following applies: kinase STK33; NEW KINOMEscan.
Chain of kinases (KINOMEscan panel) (Homo sapiens, UniProt Q9BYT3) (Q9BYT3 whole entry): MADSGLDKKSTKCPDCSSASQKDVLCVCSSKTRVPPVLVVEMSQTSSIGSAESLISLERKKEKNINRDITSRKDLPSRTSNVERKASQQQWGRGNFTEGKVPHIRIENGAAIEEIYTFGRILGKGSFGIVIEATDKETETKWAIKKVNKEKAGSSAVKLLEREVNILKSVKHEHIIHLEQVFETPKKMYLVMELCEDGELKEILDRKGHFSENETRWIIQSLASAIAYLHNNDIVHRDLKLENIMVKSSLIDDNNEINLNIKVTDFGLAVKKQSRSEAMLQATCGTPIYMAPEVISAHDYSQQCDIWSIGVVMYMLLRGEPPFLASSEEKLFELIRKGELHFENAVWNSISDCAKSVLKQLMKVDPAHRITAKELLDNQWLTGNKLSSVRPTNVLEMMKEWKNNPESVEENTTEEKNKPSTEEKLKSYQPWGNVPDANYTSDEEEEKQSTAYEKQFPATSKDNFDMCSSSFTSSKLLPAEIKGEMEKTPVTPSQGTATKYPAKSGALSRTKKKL
Test [12] has as its target kinases (KINOMEscan panel) (Homo sapiens, UniProt Q9H422). Conditions: kinase HIPK3; NEW KINOMEscan.
For test [13], the target named is kinases (KINOMEscan panel) (Homo sapiens, UniProt Q9P2K8, S808G).
Test [14] concerns the target kinases (KINOMEscan panel) (Homo sapiens, UniProt Q9Y463). The following applies: kinase DYRK1B; NEW KINOMEscan.

Chain of kinases (KINOMEscan panel) (Homo sapiens, UniProt Q9Y463) (Q9Y463 whole entry): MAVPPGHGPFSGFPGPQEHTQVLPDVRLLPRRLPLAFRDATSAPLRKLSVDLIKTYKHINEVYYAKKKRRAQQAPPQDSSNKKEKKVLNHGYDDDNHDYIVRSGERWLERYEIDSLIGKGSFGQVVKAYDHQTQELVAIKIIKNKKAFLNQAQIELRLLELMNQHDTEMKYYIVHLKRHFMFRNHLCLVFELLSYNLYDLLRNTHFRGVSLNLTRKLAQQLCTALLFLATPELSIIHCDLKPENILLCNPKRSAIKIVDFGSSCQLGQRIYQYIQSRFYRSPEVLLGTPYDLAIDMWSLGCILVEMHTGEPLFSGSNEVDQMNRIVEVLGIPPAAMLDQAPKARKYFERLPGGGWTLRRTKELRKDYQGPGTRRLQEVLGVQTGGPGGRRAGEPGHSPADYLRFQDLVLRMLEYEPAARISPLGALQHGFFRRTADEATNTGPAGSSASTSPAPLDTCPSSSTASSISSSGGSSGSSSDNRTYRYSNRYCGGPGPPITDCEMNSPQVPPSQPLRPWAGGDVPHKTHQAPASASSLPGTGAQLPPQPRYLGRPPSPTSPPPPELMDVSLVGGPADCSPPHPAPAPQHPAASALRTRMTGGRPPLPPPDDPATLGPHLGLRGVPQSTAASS
Chain of kinases (KINOMEscan panel) (Homo sapiens, UniProt P42336, Q546K) (P42336 whole entry Q546K): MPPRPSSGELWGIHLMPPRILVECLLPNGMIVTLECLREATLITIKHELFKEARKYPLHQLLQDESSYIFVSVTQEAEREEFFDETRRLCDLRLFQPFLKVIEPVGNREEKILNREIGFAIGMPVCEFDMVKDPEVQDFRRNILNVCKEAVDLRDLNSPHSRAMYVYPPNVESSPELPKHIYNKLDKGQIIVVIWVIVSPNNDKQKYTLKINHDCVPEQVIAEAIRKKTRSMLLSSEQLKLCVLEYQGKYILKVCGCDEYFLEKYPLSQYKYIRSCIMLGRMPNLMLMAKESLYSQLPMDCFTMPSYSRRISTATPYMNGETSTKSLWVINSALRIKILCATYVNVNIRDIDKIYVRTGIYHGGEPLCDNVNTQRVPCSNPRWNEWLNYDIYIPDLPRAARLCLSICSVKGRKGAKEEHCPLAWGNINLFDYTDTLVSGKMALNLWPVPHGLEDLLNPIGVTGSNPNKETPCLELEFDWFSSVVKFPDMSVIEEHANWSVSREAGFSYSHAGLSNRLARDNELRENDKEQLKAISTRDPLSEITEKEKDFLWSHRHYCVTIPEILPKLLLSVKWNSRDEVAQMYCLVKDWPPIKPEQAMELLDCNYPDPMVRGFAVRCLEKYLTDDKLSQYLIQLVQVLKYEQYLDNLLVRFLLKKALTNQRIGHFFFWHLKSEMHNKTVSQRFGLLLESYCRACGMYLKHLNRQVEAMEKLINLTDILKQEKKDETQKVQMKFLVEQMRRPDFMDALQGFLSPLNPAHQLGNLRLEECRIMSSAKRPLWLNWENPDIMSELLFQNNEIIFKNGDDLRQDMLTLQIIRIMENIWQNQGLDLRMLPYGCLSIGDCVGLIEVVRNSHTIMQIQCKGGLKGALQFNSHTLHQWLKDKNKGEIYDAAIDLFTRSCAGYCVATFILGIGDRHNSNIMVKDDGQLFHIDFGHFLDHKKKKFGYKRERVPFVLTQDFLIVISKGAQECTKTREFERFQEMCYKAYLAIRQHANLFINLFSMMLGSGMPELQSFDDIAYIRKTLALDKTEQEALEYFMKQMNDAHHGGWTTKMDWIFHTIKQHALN
Chain of kinases (KINOMEscan panel) (Homo sapiens, UniProt Q96J92) (Q96J92 whole entry): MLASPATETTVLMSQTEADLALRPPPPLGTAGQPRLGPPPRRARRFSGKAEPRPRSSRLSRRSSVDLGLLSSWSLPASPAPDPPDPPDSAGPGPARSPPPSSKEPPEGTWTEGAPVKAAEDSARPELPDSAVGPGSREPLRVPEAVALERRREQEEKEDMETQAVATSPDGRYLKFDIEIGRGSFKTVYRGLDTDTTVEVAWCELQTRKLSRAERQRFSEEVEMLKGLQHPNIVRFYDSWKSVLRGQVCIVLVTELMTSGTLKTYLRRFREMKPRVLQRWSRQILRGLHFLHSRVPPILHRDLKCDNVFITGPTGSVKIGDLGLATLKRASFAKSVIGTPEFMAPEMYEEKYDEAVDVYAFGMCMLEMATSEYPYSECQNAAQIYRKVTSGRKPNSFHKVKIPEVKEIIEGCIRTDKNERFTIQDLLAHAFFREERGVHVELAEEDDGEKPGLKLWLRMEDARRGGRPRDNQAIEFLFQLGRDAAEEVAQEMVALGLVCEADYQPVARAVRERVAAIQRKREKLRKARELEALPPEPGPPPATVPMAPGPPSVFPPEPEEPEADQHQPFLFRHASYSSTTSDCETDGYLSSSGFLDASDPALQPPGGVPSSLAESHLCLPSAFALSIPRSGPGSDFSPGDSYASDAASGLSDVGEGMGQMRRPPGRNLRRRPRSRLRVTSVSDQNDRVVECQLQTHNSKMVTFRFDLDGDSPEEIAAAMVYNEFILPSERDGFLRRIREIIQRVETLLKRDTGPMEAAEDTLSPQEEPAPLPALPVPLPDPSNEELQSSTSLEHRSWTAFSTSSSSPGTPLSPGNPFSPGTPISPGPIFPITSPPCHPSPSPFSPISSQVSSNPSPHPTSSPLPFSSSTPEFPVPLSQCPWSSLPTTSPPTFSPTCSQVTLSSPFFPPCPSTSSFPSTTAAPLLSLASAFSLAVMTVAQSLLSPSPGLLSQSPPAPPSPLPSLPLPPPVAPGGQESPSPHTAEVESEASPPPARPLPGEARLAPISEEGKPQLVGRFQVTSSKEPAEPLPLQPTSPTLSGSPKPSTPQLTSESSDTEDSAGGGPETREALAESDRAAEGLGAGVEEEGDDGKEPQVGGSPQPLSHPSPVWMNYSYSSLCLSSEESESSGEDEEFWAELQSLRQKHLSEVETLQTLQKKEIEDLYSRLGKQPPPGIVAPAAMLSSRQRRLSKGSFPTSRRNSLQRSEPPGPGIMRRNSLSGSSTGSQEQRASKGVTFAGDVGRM
Chain of kinases (KINOMEscan panel) (Homo sapiens, UniProt P09769) (P09769 whole entry): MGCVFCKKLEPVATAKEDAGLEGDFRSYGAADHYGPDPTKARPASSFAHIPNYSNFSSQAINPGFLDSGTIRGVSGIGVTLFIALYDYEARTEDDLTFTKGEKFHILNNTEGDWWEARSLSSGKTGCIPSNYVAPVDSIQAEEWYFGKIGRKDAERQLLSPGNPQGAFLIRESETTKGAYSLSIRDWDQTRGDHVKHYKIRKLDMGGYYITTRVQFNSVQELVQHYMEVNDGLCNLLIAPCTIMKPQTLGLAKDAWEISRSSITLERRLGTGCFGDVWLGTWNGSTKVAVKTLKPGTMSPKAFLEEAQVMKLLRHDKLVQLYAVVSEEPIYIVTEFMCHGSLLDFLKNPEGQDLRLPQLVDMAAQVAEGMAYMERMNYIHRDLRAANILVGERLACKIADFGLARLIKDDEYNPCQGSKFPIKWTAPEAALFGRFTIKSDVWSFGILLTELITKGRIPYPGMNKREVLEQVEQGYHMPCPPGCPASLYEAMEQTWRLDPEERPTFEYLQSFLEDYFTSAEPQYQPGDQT

On to `Cc1cccc(-c2nc(N(C)c3ccc4ncsc4c3)c3ccccc3n2)n1` [NK-161], for which the “KINOMEscan FGR” value in test [1] was 0. The “KINOMEscan ElF2AK2” value in test [2] is listed as 7. Besides, the “KINOMEscan FGFR4” value in test [3] worked out at 19. Further, in test [4], the “KINOMEscan PIK3CA(Q546K)” value is given as 7. The “KINOMEscan EPHB3” value in test [5] was determined as 6. Further, the “KINOMEscan PRKCE” value in test [6] worked out at 7. Moreover, in test [7], the “KINOMEscan TNK2” value was 0. Also, the “KINOMEscan CAMK1” value in [8] came out at 0. Also, the “KINOMEscan NEK7” value in test [9] is reported as 0. Further, the “KINOMEscan WNK4” value in [10] is listed as 0. Also, in test [11], the “KINOMEscan STK33” value was found to be 0. The “KINOMEscan HIPK3” value in test [12] came out at 0. Moreover, the “KINOMEscan EIF2AK4/GCN2(Kin.Dom.2,S808G)” value in test [13] is 53. Besides, the “KINOMEscan DYRK1B” value in test [14] is 16.

As for `Cc1cccc(-c2nc(Nc3ccc4nn(C)cc4c3)c3ccccc3n2)n1` [NK167], the “KINOMEscan FGR” value in [1] worked out at 0. Moreover, in [2], the “KINOMEscan ElF2AK2” value is recorded as 19. Besides, the “KINOMEscan FGFR4” value in test [3] was found to be 16. Moreover, the “KINOMEscan PIK3CA(Q546K)” value in test [4] was 0. For the same compound, in [5], the “KINOMEscan EPHB3” value is recorded as 6. Also, in [6], the “KINOMEscan PRKCE” value worked out at 0. The “KINOMEscan TNK2” value in test [7] was 0. Also, the “KINOMEscan CAMK1” value in test [8] is recorded as 0. Further, in [9], the “KINOMEscan NEK7” value was determined as 0. Besides, in test [10], the “KINOMEscan WNK4” value is 0. Further, the “KINOMEscan STK33” value in test [11] amounted to 0. For the same compound, in test [12], the “KINOMEscan HIPK3” value stood at 0. For the same compound, in [13], the “KINOMEscan EIF2AK4/GCN2(Kin.Dom.2,S808G)” value stood at 38. Further, in [14], the “KINOMEscan DYRK1B” value was determined as 12.
